For one assay, the system named is Mab Hs-1. In kind it is binding.
The next assay relates to MAb Hs-2. In kind it is binding.
The next assay concerns MAb Hs-3. The format is binding.
For assay [1], the system named is Japanese encephalitis virus. The format is in vivo, mice (BALB/C, C3H, SWISS/Albino). Particulars: 50 ug peptide per mouse per dose sc with Freund's adjuvant every 14 days; FIGS. 3A-3C.
Assay [2] has as its system Japanese encephalitis virus. The format is cell-based, Porcine stable kidney cells; sera from mice.
Assay [3] concerns Japanese encephalitis virus. In kind it is in vivo, mice (C3H, BALB/c, SWISS). Particulars: observed 21 days.
The subject of assay [4] is Japanese encephalitis virus. In kind it is in vivo, BALB/c mice. As to conditions: 40 ug conjugate per mouse per dose with Freund's adjuvant.
Where [5] appears, read: other strains of mice (BALB/c or SWISS).

Like-named read-outs stand apart in the source and are kept apart here.

With AIVVEYSS [269-AIVVEYSS-276], in the assay on Mab Hs-1, the “Reaction with Mab Hs-1 (in words)” value is listed as “react with Mab Hs-1” and the “Reactivity with monoclonal antibody Hs-1, OD values at 492 nm” value was 0.696. In addition, in the assay on MAb Hs-2, the “Reactivity with monoclonal antibody Hs-2, OD values at 492 nm” value amounted to 0.041. Further, the “Reactivity with monoclonal antibody Hs-3, OD values at 492 nm” value with MAb Hs-3 is recorded as 0.115.

Turning to ANDKPTLD [35-ANDKPTLD-42], in the assay with Mab Hs-1, the “Reactivity with monoclonal antibody Hs-1, OD values at 492 nm” value was 0.022. In addition, the “Reactivity with monoclonal antibody Hs-2, OD values at 492 nm” value in the assay with MAb Hs-2 was determined as 0.016. The “Reactivity with monoclonal antibody Hs-3, OD values at 492 nm” value in the assay on MAb Hs-3 is reported as 0.052.

In the case of DKPTLDVR [37-DKPTLDVR-44], the “Reactivity with monoclonal antibody Hs-1, OD values at 492 nm” value with Mab Hs-1 was 0.029. In addition, the “Reactivity with monoclonal antibody Hs-2, OD values at 492 nm” value in the assay with MAb Hs-2 stood at 0.016. Further, in the assay with MAb Hs-3, the “Reactivity with monoclonal antibody Hs-3, OD values at 492 nm” value was 0.035.

For DVRMINIE [42-DVRMINIE-49], in the assay on Mab Hs-1, the “Reactivity with monoclonal antibody Hs-1, OD values at 492 nm” value is 0.155. Also, the “Reactivity with monoclonal antibody Hs-2, OD values at 492 nm” value with MAb Hs-2 is 0.008. Besides, the “Reactivity with monoclonal antibody Hs-3, OD values at 492 nm” value in the assay on MAb Hs-3 was determined as 0.043.

Regarding EYSSSVKL [273-EYSSSVKL-280], in the assay on Mab Hs-1, the “Reactivity with monoclonal antibody Hs-1, OD values at 492 nm” value came to 0.538. In the assay with MAb Hs-2, the “Reactivity with monoclonal antibody Hs-2, OD values at 492 nm” value was 0.045. In addition, the “Reactivity with monoclonal antibody Hs-3, OD values at 492 nm” value in the assay on MAb Hs-3 came out at 0.110.

Turning to “H-SENHGNYSAQVGASQGSIGGVFNSIGKAVHQVFG-OH [chimeric peptide]”, the “Anti Japanese encephalitis virus response by ELISA (in words)” value in assay [1] is “capable of eliciting an immune response against JE virus”. Besides, the “Neutralization of Japanese encephalitis virus by anti-peptide sera” value is given as “not able to neutralize the virus” in assay [2] (setting [5]) and “capable of neutralizing Japanese encephalitis virus” in assay [2] (sera from C3H mice, diluted 1:50, plaque reduction, FIG. 4). The “Resistance to lethal virus challenge (survival)” value is recorded as “able to resist the virus challenge” in assay [3] (C3H mice, challenge virus dose 2.3 log LD 50 i.p. followed by 1% starch i.c., FIG. 5) and “nor were they able to resist the virus challenge” in assay [3] (setting [5]).

In the case of IMANDKPT [33-IMANDKPT-40], the “Reactivity with monoclonal antibody Hs-1, OD values at 492 nm” value in the assay on Mab Hs-1 turned out to be 0.110. In addition, the “Reactivity with monoclonal antibody Hs-2, OD values at 492 nm” value with MAb Hs-2 worked out at 0.016. The “Reactivity with monoclonal antibody Hs-3, OD values at 492 nm” value in the assay on MAb Hs-3 turned out to be 0.017.

For IVVEYSSS [270-IVVEYSSS-277], the “Reactivity with monoclonal antibody Hs-1, OD values at 492 nm” value with Mab Hs-1 is given as 0.637. In the assay on MAb Hs-2, the “Reactivity with monoclonal antibody Hs-2, OD values at 492 nm” value is 0.030. Moreover, the “Reactivity with monoclonal antibody Hs-3, OD values at 492 nm” value in the assay with MAb Hs-3 came out at 0.112.

For the substance LDVRMINI [41-LDVRMINI-48], the “Reactivity with monoclonal antibody Hs-1, OD values at 492 nm” value in the assay on Mab Hs-1 stood at 0.277. Besides, the “Reactivity with monoclonal antibody Hs-2, OD values at 492 nm” value in the assay with MAb Hs-2 worked out at 0.007. Further, the “Reactivity with monoclonal antibody Hs-3, OD values at 492 nm” value in the assay with MAb Hs-3 is given as 0.082.

With MINIEASQ [45-MINIEASQ-52], in the assay on Mab Hs-1, the “Reactivity with monoclonal antibody Hs-1, OD values at 492 nm” value is 0.177. In addition, the “Reactivity with monoclonal antibody Hs-2, OD values at 492 nm” value with MAb Hs-2 was determined as 0.001. For the same substance, in the assay with MAb Hs-3, the “Reactivity with monoclonal antibody Hs-3, OD values at 492 nm” value turned out to be 0.080.

Turning to NHGNYSAQVGASQ [151-NHGNYSAQVGASQ-163], in the assay on Mab Hs-1, the “Reactivity with monoclonal antibody Hs-1, OD values at 492 nm” value is reported as 0.074. Also, the “Reactivity with monoclonal antibody Hs-2, OD values at 492 nm” value with MAb Hs-2 turned out to be 0.294. In the assay on MAb Hs-3, the “Reactivity with monoclonal antibody Hs-3, OD values at 492 nm” value is 0.258.

For NIEASQLA [47-NIEASQLA-54], the “Reactivity with monoclonal antibody Hs-1, OD values at 492 nm” value with Mab Hs-1 worked out at 0.07. Moreover, the “Reactivity with monoclonal antibody Hs-2, OD values at 492 nm” value in the assay with MAb Hs-2 stood at 0.003. For the same substance, the “Reactivity with monoclonal antibody Hs-3, OD values at 492 nm” value in the assay on MAb Hs-3 is listed as 0.081.

On to Ovalbumin, for which the results for the “Reactivity of anti peptide sera with Japanese encephalitis virus by ELISA, mean optical density” value in assay [4] (sera collected on post inoculation day 7), in assay [4] (sera collected on post inoculation day 14) and in assay [4] (sera collected on post inoculation day 21) were 0.127 ± 0.022, 0.116 ± 0.072 and 0.153 ± 0.003, respectively.

Turning to PTLDVRMI [39-PTLDVRMI-46], in the assay with Mab Hs-1, the “Reaction with Mab Hs-1 (in words)” value was “react with Mab Hs-1” and the “Reactivity with monoclonal antibody Hs-1, OD values at 492 nm” value was 0.313. The “Reactivity with monoclonal antibody Hs-2, OD values at 492 nm” value with MAb Hs-2 was 0.006. Moreover, the “Reactivity with monoclonal antibody Hs-3, OD values at 492 nm” value with MAb Hs-3 was found to be 0.025.

Consider “SENHGNYSAQVGASQ [149-SENHGNYSAQVGASQ-163]”, for which the “Reactivity with monoclonal antibody Hs-1, OD values at 492 nm” value in the assay on Mab Hs-1 stood at 0.093. In the assay with MAb Hs-2, the “Reactivity with monoclonal antibody Hs-2, OD values at 492 nm” value is 0.415. In addition, the “Reactivity with monoclonal antibody Hs-3, OD values at 492 nm” value with MAb Hs-3 came to 0.377. Besides, the “Anti Japanese encephalitis virus response by ELISA (in words)” value in assay [1] is on record as “capable of eliciting an immune response against JE virus”.

In the case of SSSVKLTS [275-SSSVKLTS-282], the “Reactivity with monoclonal antibody Hs-1, OD values at 492 nm” value in the assay with Mab Hs-1 was 0.765. The “Reactivity with monoclonal antibody Hs-2, OD values at 492 nm” value in the assay on MAb Hs-2 amounted to 0.053. The “Reactivity with monoclonal antibody Hs-3, OD values at 492 nm” value in the assay on MAb Hs-3 is reported as 0.136.

Consider SSVKLTSG [276-SSVKLTSG-283], for which, in the assay with Mab Hs-1, the “Reactivity with monoclonal antibody Hs-1, OD values at 492 nm” value turned out to be 0.447. In addition, the “Reactivity with monoclonal antibody Hs-2, OD values at 492 nm” value in the assay with MAb Hs-2 is listed as 0.061. Moreover, the “Reactivity with monoclonal antibody Hs-3, OD values at 492 nm” value in the assay on MAb Hs-3 was determined as 0.123.

With TLDVRMIN [40-TLDVRMIN-47], the “Reactivity with monoclonal antibody Hs-1, OD values at 492 nm” value in the assay on Mab Hs-1 is 0.329. Further, the “Reactivity with monoclonal antibody Hs-2, OD values at 492 nm” value in the assay on MAb Hs-2 worked out at 0.008. Besides, the “Reactivity with monoclonal antibody Hs-3, OD values at 492 nm” value in the assay with MAb Hs-3 amounted to 0.064.

Turning to VEYSSSVK [272-VEYSSSVK-279], the “Reactivity with monoclonal antibody Hs-1, OD values at 492 nm” value in the assay with Mab Hs-1 came to 0.290. For the same substance, the “Reactivity with monoclonal antibody Hs-2, OD values at 492 nm” value in the assay on MAb Hs-2 is recorded as 0.040. Further, the “Reactivity with monoclonal antibody Hs-3, OD values at 492 nm” value with MAb Hs-3 worked out at 0.106.

Turning to VRMINIEA [43-VRMINIEA-50], the “Reactivity with monoclonal antibody Hs-1, OD values at 492 nm” value in the assay with Mab Hs-1 was found to be 0.338. Further, the “Reactivity with monoclonal antibody Hs-2, OD values at 492 nm” value with MAb Hs-2 is given as 0.012. In addition, the “Reactivity with monoclonal antibody Hs-3, OD values at 492 nm” value in the assay on MAb Hs-3 came out at 0.133.

For the substance VVEYSSSV [271-VVEYSSSV-278], in the assay on Mab Hs-1, the “Reactivity with monoclonal antibody Hs-1, OD values at 492 nm” value is 0.659. Further, the “Reactivity with monoclonal antibody Hs-2, OD values at 492 nm” value with MAb Hs-2 was 0.029. The “Reactivity with monoclonal antibody Hs-3, OD values at 492 nm” value in the assay on MAb Hs-3 was found to be 0.090.

On to YSAQVGASQ [155-YSAQVGASQ-163], for which the “Reactivity with monoclonal antibody Hs-1, OD values at 492 nm” value with Mab Hs-1 was 0.118. Moreover, the “Reactivity with monoclonal antibody Hs-2, OD values at 492 nm” value in the assay on MAb Hs-2 is recorded as 0.492. Also, in the assay with MAb Hs-3, the “Reactivity with monoclonal antibody Hs-3, OD values at 492 nm” value is reported as 0.334.

Consider YSAQVGASQAAKF [155-YSAQVGASQAAKF-167], for which the “Reactivity with monoclonal antibody Hs-1, OD values at 492 nm” value in the assay with Mab Hs-1 came out at 0.106. Also, in the assay with MAb Hs-2, the “Reactivity with monoclonal antibody Hs-2, OD values at 492 nm” value came out at 0.501. Moreover, the “Reactivity with monoclonal antibody Hs-3, OD values at 492 nm” value with MAb Hs-3 was 0.377.

For YSSSVKLT [274-YSSSVKLT-281], the “Reactivity with monoclonal antibody Hs-1, OD values at 492 nm” value in the assay on Mab Hs-1 was 0.616. Also, the “Reactivity with monoclonal antibody Hs-2, OD values at 492 nm” value with MAb Hs-2 worked out at 0.054. For the same substance, the “Reactivity with monoclonal antibody Hs-3, OD values at 492 nm” value in the assay on MAb Hs-3 is listed as 0.153.
